Consider two compounds from patent US10851400B2, “Assay for high-throughput identification of therapeutic compounds” (priority 2016, dated 2020).

In brackets after ≈: the same amount, converted by molar mass.

What is called MIC is the least concentration at which growth counts as inhibited. The low end stands for inhibition by little substance, the high end for a need for much substance.

Test [1] has as its system Acinetobacter baumanii, ATCC 19606. The test can be described thus: Broth minimum inhibitory concentration (MIC) assay of K15. The settings on record: A. baumannii; broth MIC in CAMHB, 18-24 hours. The format is cell-based, Acinetobacter baumannii. The method, then:
(§1) Peptoid K15 was analyzed via a traditional broth minimum inhibitor concentration (MIC) assay against seven different ESKAPE pathogens (Acinetobacter baumanii, ATCC 19606; Enterococcus faecalis, ATCC 29212; Enterococcus faecium, ATCC 19434; Escherichia coli, ATCC 25922; Klebsiella pneumoniae, ATCC 700603; Pseudomonas aeruginosa, ATCC 27853; Staphylococcus aureus, ATCC 29213). For each of the bacterial strains screened in the ESKAPE panel, 1-3 isolated colonies were collected from a TSA plate by a flame sanitized wire loop and resuspended in 5 mL of TSB. The solutions were incubated at 37° C. for 18-24 hours. After the growth period, the turbidity was measured at 600 nm and adjusted to an optical density of 0.08-0.13 by diluting with TSB for an approximate concentration of 1×10^8 CFU/mL. Once the desired OD was achieved, 20 μL of the bacteria suspension were diluted 1:20 in 380 μL Cation Adjusted Mueller-Hinton broth (CAMHB) for a final concentration of 5×10^6 CFU/mL.
(§2) 4 μL of a 10 mM stock of K15 were diluted in […] CAMHB for each bacterial strain assayed (a total of 28 μL stock in 2.478 mL broth for ESKAPE panel). […]
(§3) The prepared plates were incubated for another 18-24 hours. Their respective absorbance at 600 nm was analyzed on a SpectraMax M5 Plate Reader. […] Absorbance at 555, 570, and 585 nm was analyzed to determine viable cells having survived treatment by the antimicrobial compound. […]

The next test has as its system ESKAPE pathogens. Put plainly: Broth MIC assay of K15 against the panel of seven ESKAPE pathogens. In kind it is cell-based. The settings on record: seven pathogens tested. Here is the method:
as §1, §2, §3

The next test relates to E. coli (ATCC 25922). The test can be described thus: PLAD assay, zone of inhibition around beads in soft agar.
In test [2] the test system is Enterococcus faecium, ATCC 19434. Put plainly: Broth minimum inhibitory concentration (MIC) assay of K15. As to conditions: E. faecium; broth MIC in CAMHB, 18-24 hours. The format is cell-based. The method, then: as §1, §2, §3

On to `CCCCCCCCCCCCCNCC(=O)N(CCN)CC(=O)N(CC(N)=O)C(C)c1ccccc1` (stereo not drawn) [K15, NTri-Nae-NPea], for which the MIC in test [1] and in test [2] was 25 µg/mL (≈ 48.3 µM) throughout. For the same compound, the “antimicrobial efficacy against the ESKAPE pathogens” value in the test on ESKAPE pathogens is listed as “modest efficacy against six of the seven pathogens tested”. For the same compound, the zone of inhibition entry in the test on E. coli (ATCC 25922) (proof-of-concept library on PLAD linker, 14 mM TCEP, 37° C. for 18 hours) was “largest average zone of inhibition”.
For the compound “NTri-NLys-NPea-NPea-NLys [C134mer, reference compound]”, in the test on E. coli (ATCC 25922) (PLAD linked C134mer beads, DTT, BME or TCEP at 0, 2, 6, 10, and 14 mM), the zone of inhibition entry was “concentration dependent zones of inhibition”.
